This note sets out measurements from PubChem BioAssay AID588616 (The Scripps Research Institute Molecular Screening Center, 2011).

For assay [1], the target named is Mitogen-activated protein kinase 14 (Homo sapiens) (UniProt Q16539). The experiment in a line: phosphorylated p38 MAPK abundance shift – DLD1 cells, chemiluminescent western blot, powder samples, counter-screen for KLF5 inhibitor project, late-stage follow-up (AID 588616). The following applies: DLD-1 cells, phospho-p38 western blot, 24 h; at 10 µM; stronger effect = higher value.
Chain of Mitogen-activated protein kinase 14 (Homo sapiens) (Q16539 whole entry, looked up): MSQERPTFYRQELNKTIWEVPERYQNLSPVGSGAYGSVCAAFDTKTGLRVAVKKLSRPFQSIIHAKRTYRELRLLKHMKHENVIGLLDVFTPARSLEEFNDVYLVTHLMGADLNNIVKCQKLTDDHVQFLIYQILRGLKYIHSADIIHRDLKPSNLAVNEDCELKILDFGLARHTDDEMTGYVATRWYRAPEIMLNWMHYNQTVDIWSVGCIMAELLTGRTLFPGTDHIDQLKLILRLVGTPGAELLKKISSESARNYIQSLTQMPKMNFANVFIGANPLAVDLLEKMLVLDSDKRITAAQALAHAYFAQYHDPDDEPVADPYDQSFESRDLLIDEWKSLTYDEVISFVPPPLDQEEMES

The test system of assay [2] is DLD-1 cells, phospho-p38 western blot, 24 h. The description is as above. The following applies: measured here: phospho-p38 band fold change vs DMSO; at 10 µM; stronger effect = lower value.

The term inhibition denotes the change of the read-out against control, counted positive when it falls. Regarding `CN(C(=O)CNC(=O)/C=C/c1cccc(Cl)c1)C1CCS(=O)(=O)CC1`, in assay [1], the inhibition was -144%. The fold change in assay [2] stood at 2.44.
For `CN(C(=O)COC(=O)/C=C/c1cccc([N+](=O)[O-])c1)C1CCS(=O)(=O)C1` (stereo unspecified), in assay [1], the inhibition was -197%. In addition, the fold change in assay [2] was found to be 2.97.
The like results for `CN(C(=O)CNC(=O)/C=C/c1cccc(Cl)c1)C1CCS(=O)(=O)C1` (stereo unspecified) were, in that order, -114% and 2.14.
